Reference: patent publication US11834431B2, “Crystals of cyclic amine derivative and pharmaceutical use thereof” (Toray Industries, Inc., priority 2016, dated 2023)

Key:
[1] = tested on: spinal nerve ligation model rats (neuropathic pain model rats); assay: Analgesic effect on allodynia in spinal nerve ligation model rats (von Frey, 50% response threshold); type: in vivo, rat; conditions: oral 10 mg/kg, measured 3 hours after administration, 8 days after ligation, compared to negative control group
Description: Analgesic effects of the crystal of compound (I) or the pharmacologically acceptable salt thereof upon neuropathic pain were evaluated using spinal nerve ligation model rats (Kim and Chung, Pain, 1992, vol. 50, p. 355). Form A crystal of compound (I) was used as a crystal of compound (I) or the pharmacologically acceptable salt thereof for evaluation.
The above model rats were prepared as follows. In experiments, 6-to 7-week-old SD male rats were used for 5 to 7 cases per group, and the lumbar skin and muscle of each rat were dissected to expose the L5 and L6 […] under inhalation anesthesia with isoflurane. After ligating the L5 and L6 spinal nerves with silk suture, the wound of each rat was sutured. Thus, a nerve ligation group was prepared. The group in which the nerve was exposed but not ligated was determined to be a sham surgery group.
Allodynia observed in spinal nerve ligation model rats was measured using a von Frey filaments according to a method described in a known publication (Chaplan et al., J. Neurosci. Methods, 1994, vol. 53, p. 55) and a 50% response threshold (g) was determined. Eight days after the ligation surgery, allodynia of the nerve ligation group was measured before oral administration of Form A crystal of compound (I). Rats with a 50% response threshold (average value of the right hind paw and the left hind paw) of 2 g to less than 6 g were considered to have developed allodynia. The rats were divided as neuropathic pain model rats into groups such that there was no significant difference in the 50% response threshold between groups. Allodynia was measured 3 hours after the oral administration of Form A crystal of compound (I), and the analgesic effect was evaluated. Pregabalin was used as a positive control.
Form A crystal of compound (I) was dissolved in water for injection (distilled water) to result in concentrations of 5, 10, and 20 mg/mL, and orally administered in a dose volume of 1 mL per kg body weight. Pregabalin was dissolved in water for injection (distilled water) to result in a concentration of 10 mg/mL and orally administered in a dose volume of 1 mL per kg of body weight. Water for injection (distilled water) was orally administered to the sham surgery group. A group in which water for injection (distilled water) was orally administered to rats in the nerve ligation group was defined as a negative control group.
The horizontal axis represents the solution to be administered in each group, namely, the nerve ligation group or sham surgery group, and the vertical axis represents the 50% response threshold (g) (mean±standard error, n=5 to 7). […]

fibromyalgia model rats = assay: Analgesic effect on allodynia in fibromyalgia model rats (von Frey, 50% response threshold); type: in vivo, rat; conditions: oral 10 mg/kg, measured 3 hours after administration, Day 7, compared to negative control group
Description: The analgesic effect of the crystal of compound (I) or the pharmacologically acceptable salt thereof against fibromyalgia syndrome was evaluated using fibromyalgia model rats (Sluka et al., Journal of Pharmacology and Experimental Therapeutics, 2002, vol. 302, pp. 1146-1150; Nagakura et al., Pain, 2009, vol. 146, pp. 26-33; Sluka et al., Pain, 2009, vol. 146, pp. 3-4). Form A crystal of compound (I) was used as a crystal of compound (I) or the pharmacologically acceptable salt thereof for evaluation.
The above model rats were prepared as follows. In experiments, 6-to 7-week-old SD male rats were used for 5 or 6 cases per group. 100 μL of acidic physiological saline adjusted to pH 4.0 was administered twice to the gastrocnemius muscle of the right hind paw of each rat (the day of the administration of acidic physiological saline was defined as Day 1 after the start of the experiment, and single dose administrations were carried out on Days 1 and 6 after the start of the experiment) under inhalation anesthesia with isoflurane. The thus prepared group was determined to be an acidic physiological saline group. As a control for the model, a group treated with a physiological saline instead of an acidic physiological saline was determined to be a physiological saline group.
Allodynia observed in fibromyalgia model rats was measured using a von Frey filaments according to a method described in a known publication (Chaplan et al., Journal of Neuroscience Methods, 1994, vol. 53, pp. 55-63) and a 50% response threshold (g) was determined. On Day 7 after the start of the experiment, allodynia was measured 3 hours after oral administration of Form A crystal of compound (I), and the analgesic effect was evaluated. Allodynia of the acidic physiological saline group was measured before oral administration of Form A crystal of compound (I). […] Allodynia was measured 3 hours after the oral administration of the crystal of compound (I), and the analgesic effect was evaluated. […]

[2] = Evaluation of storage stability, Form A crystal versus amorphous matter (HPLC purity); type: physicochemical; conditions: airtight state
[3] = Evaluation of hygroscopicity (equilibrium moisture measurement); type: physicochemical; conditions: 30° C.
Description: Equilibrium moisture measurement was performed on Form A crystal and the amorphous matter of compound (I) under the following conditions using a fully automated symmetric vapor sorption analyzer (TA Instruments Inc.; VTI-SA+). […] The change in appearance was also observed.

[4] = Dissolution of amorphous matter in various solvents (selection of crystallization solvents); type: physicochemical
Description: The amorphous matter (10 mg) of compound (I) was weighed into a borosilicate glass vial, each solvent in Table 3 was added at the corresponding amount of solvent added in Table 3, and confirmed whether or not the amorphous matter was dissolved. […] Subsequently, the vial was shaken at room temperature in an airtight state for 7 days. However, no solid precipitated in either case. […] It was therefore judged that they were unsuitable as a crystallization solvent.

[5] = Evaluation of solubility in Japanese Pharmacopoeia test fluids; type: physicochemical; conditions: aqueous buffer, thermodynamic from solid; 2nd fluid for disintegration test of the Japanese Pharmacopoeia 16th edition (pH 6.8), 37° C., 30 minutes; read-out: Solubility (37° C.)
Description: Form A crystal of compound (I) (100 mg) was weighed into a borosilicate glass vial, and the 1st fluid for disintegration test/1st fluid for dissolution test of the Japanese Pharmacopoeia 16th edition (pH 1.2)(1 mL) or the 2nd fluid for disintegration test of the Japanese Pharmacopoeia 16th edition (pH 6.8)(1 mL) was added in a temperature and humidity test chamber (Amefrec Co., Ltd.; NO DOORα) adjusted to 37° C., followed by stirring. Form B crystal of ethane disulfonate of compound (I) (10 mg) was weighed into a borosilicate glass vial, and the 2nd fluid for disintegration test of the Japanese Pharmacopoeia 16th edition (pH 6.8) (0.1 mL) was added in a temperature and humidity test chamber (Amefrec Co., Ltd.; NO DOORα) adjusted to 37° C., followed by stirring. After 30 minutes, the inside of each vial was visually checked, and it was confirmed that each crystal was completely dissolved.

[6] = 40° C., relative humidity 75%, 8 weeks

CC(C)C[C@H](CN)CC(=O)O [pregabalin, reference compound]
improvement of allodynia (50% response threshold) [1]: significant improvement
improvement of allodynia (50% response threshold) (fibromyalgia model rats): significant improvement

CN(C)C1CCN(C(=O)C[C@H](O)c2nccn2C)CC1 [Amorphous matter, (S)-1-(4-(dimethylamino)piperidin-1-yl)-3-hydroxy-3-(1-methyl-1H-imidazol-2-yl)propan-1-one]
Chemical purity, After storage [2, 6]: 97.2%
Decomposition product increased by not less than 0.15% after storage [2, 6]: 4 different
Optical purity, After storage [2, 6]: 98.7 % ee
Chemical purity, After storage ([2]; 60° C., 4 weeks): 91.5%
Decomposition product increased by not less than 0.15% after storage ([2]; 60° C., 4 weeks): 7 different
Optical purity, After storage ([2]; 60° C., 4 weeks): 98.9 % ee
relative humidity at which the substance deliquesced [3]: less than 5%
Change in appearance ([3]; humidification, listed as amorphous matter): turned into oil matter
Appearance of solution ([4]; 1-Butanol, 0.02 mL added, 500 mg/mL): Soluble
Appearance of solution ([4]; 1-Propanol, 0.02 mL added, 500 mg/mL): Soluble
Appearance of solution ([4]; 2-Butanone, 0.02 mL added, 500 mg/mL): Soluble
Appearance of solution ([4]; 2-Propanol, 0.005 mL added, 2000 mg/mL): Soluble
Appearance of solution ([4]; 2-Propanol, 0.02 mL added, 500 mg/mL): Soluble
Appearance of solution ([4]; 4-Methyl-2-pentanone, 0.02 mL added, 500 mg/mL): Soluble
Appearance of solution ([4]; Acetone, 0.01 mL added, 1000 mg/mL): Soluble
Appearance of solution ([4]; Acetone, 0.02 mL added, 500 mg/mL): Soluble
Appearance of solution ([4]; Acetonitrile, 0.005 mL added, 2000 mg/mL): Soluble
Appearance of solution ([4]; Acetonitrile, 0.02 mL added, 500 mg/mL): Soluble
Appearance of solution ([4]; Chlorobenzene, 0.02 mL added, 500 mg/mL): Soluble
Appearance of solution ([4]; Chloroform, 0.005 mL added, 2000 mg/mL): Soluble
Appearance of solution ([4]; Chloroform, 0.02 mL added, 500 mg/mL): Soluble
Appearance of solution ([4]; Cyclohexane, 0.02 mL added, 500 mg/mL): Insoluble
Appearance of solution ([4]; Cyclohexane, 3 mL added, 3 mg/mL): not dissolved at all
Appearance of solution ([4]; Cyclohexane, 3 mL added, 3 mg/mL, listed as amorphous matter of compound (I)): Insoluble
Appearance of solution ([4]; Ethanol, 0.02 mL added, 500 mg/mL): Soluble
Appearance of solution ([4]; Ethyl acetate, 0.005 mL added, 2000 mg/mL): Soluble
Appearance of solution ([4]; Ethyl acetate, 0.01 mL added, 1000 mg/mL): Soluble
Appearance of solution ([4]; Ethyl acetate, 0.02 mL added, 500 mg/mL): Soluble
Appearance of solution ([4]; Ethyl formate, 0.02 mL added, 500 mg/mL): Soluble
Appearance of solution ([4]; Heptane, 0.02 mL added, 500 mg/mL): Insoluble
Appearance of solution ([4]; Heptane, 3 mL added, 3 mg/mL): not dissolved at all
Appearance of solution ([4]; Heptane, 3 mL added, 3 mg/mL, listed as amorphous matter of compound (I)): Insoluble
Appearance of solution ([4]; Isobutyl acetate, 0.02 mL added, 500 mg/mL): Soluble
Appearance of solution ([4]; Isopropyl acetate, 0.02 mL added, 500 mg/mL): Soluble
Appearance of solution ([4]; Methanol, 0.005 mL added, 2000 mg/mL): Soluble
Appearance of solution ([4]; Methanol, 0.02 mL added, 500 mg/mL): Soluble
Appearance of solution ([4]; Methyl acetate, 0.02 mL added, 500 mg/mL): Soluble
Appearance of solution ([4]; Tetrahydrofuran, 0.01 mL added, 1000 mg/mL): Soluble
Appearance of solution ([4]; Tetrahydrofuran, 0.02 mL added, 500 mg/mL): Soluble
Appearance of solution ([4]; Toluene, 0.005 mL added, 2000 mg/mL): Soluble
Appearance of solution ([4]; Toluene, 0.02 mL added, 500 mg/mL): Soluble
Appearance of solution ([4]; Water, 0.02 mL added, 500 mg/mL): Soluble
concentration at which completely dissolved ([4]; each solvent in Table 3 (text summary; cyclohexane and heptane excepted)): ≥ 500000 µg/mL

CN(C)C1CCN(C(=O)C[C@H](O)c2nccn2C)CC1 [Form B crystal of ethane disulfonate, (S)-1-(4-(dimethylamino)piperidin-1-yl)-3-hydroxy-3-(1-methyl-1H-imidazol-2-yl)propan-1-one]
solubility at 30 min [5]: > 100 mg/mL
